Source: patent US8822503B2, “2-pyridone compounds” (Taisho Pharmaceutical Co., Ltd, priority 2009, dated 2014)

Molecular target: T1, human liver GK (Homo sapiens, UniProt P35557)
T1 construct: GST (glutathione S-transferase) (N); made in house; host or cells: E. coli
T1 sequence (P35557 1-466 isoform P35557-2): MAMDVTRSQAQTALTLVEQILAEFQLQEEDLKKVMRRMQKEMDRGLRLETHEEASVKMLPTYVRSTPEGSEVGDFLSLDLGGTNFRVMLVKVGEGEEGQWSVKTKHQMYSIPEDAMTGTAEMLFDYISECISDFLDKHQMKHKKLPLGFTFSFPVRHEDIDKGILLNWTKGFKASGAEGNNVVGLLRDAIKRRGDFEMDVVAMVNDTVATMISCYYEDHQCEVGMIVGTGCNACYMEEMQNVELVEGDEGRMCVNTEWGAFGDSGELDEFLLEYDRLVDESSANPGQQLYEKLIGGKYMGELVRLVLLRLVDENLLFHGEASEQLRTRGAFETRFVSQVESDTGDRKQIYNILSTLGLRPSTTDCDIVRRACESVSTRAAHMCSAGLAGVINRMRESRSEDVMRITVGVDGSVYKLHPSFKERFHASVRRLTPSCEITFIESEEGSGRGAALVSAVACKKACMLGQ
Assay: GK activation test
Type: biochemical
Conditions: test compound concentration needed to activate 50% of maximum activation ability; 4 mM 14C-labeled glucose, 2 mM ATP, room temperature, 20 minutes
In short: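 GST-tagged human liver GK from E. coli (0.24 μg/well) with 4 mM 14C-glucose, 2 mM ATP in Hepes-KOH pH 7.1, KCl, MgCl2, DTT, 1% DMSO, 20 min room temperature. Labeled glucose 6-phosphate captured on anion resin, eluted and counted. EC50 = concentration giving half of maximal activation.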

Q: Which EC50 does the source give for CC(C)(C)c1ccc(/C(=C\[C@H]2CCC(=O)N2)c2ccc(-c3cn[nH]c3)c(=O)[nH]2)cc1 [Example 4-361, 6-{(E)-1-(4-tert-Butylphenyl)-2-[(2R)-5-oxopyrrolidin-2-yl]ethenyl}-3-(1H-pyrazol-4-yl)pyridin-2(1H)-one] here?
A: Its EC50 is 0.01 to 0.5 µM.

Q: Cc1ccc(/C(=N/OC2CCCC2)c2ccc(S(C)(=O)=O)cc2)[nH]c1=O [Example 5-3, (E)-6-{(Cyclopentyloxyimino)[4-(methylsulfonyl)phenyl]methyl}-3-methylpyridin-2(1H)-one] was tested. Which EC50 did it give?
A: Its EC50 is 3 to 10 µM.

Q: Which EC50 does the source give for CC(C)(C)c1ccc(/C(=C\CO)c2ccc(Cl)c(=O)[nH]2)cc1 [Example 6-1, 6-[(1E)-1-(4-tert-Butylphenyl)-3-hydroxyprop-1-en-1-yl]-3-chloropyridin-2(1H)-one] here?
A: Its EC50 is 3 to 10 µM.

Q: How did the EC50 turn out when CC(C)(C)c1ccc(/C(=C\CN2CCOC2=O)c2ccc(Cl)c(=O)[nH]2)cc1 [Example 6-2, 6-[(1E)-1-(4-tert-Butylphenyl)-3-(2-oxo-1,3-oxazolidin-3-yl)prop-1-en-1-yl]-3-chloropyridin-2(1H)-one] was run?
A: Its EC50 is 0.01 to 0.5 µM.

Q: Which EC50 does the source give for CC(C)(C)c1ccc(/C(=C\CN2CCCC2=O)c2ccc(Cl)c(=O)[nH]2)cc1 [Example 6-3, 6-[(1E)-1-(4-tert-Butylphenyl)-3-(2-oxopyrrolidin-1-yl)prop-1-en-1-yl]-3-chloropyridin-2(1H)-one] here?
A: The EC50 was 0.01 to 0.5 µM.

Q: How did the EC50 turn out when CC(C)(C)c1ccc(/C(=C\CN2CCCCC2=O)c2ccc(Cl)c(=O)[nH]2)cc1 [Example 6-4, 6-[(1E)-1-(4-tert-Butylphenyl)-3-(2-oxopiperidin-1-yl)prop-1-en-1-yl]-3-chloropyridin-2(1H)-one] was run?
A: Its EC50 is 0.5 to 3 µM.

Q: For CC(C)(C)c1ccc(/C(=C\CN2CCOCC2)c2ccc(Cl)c(=O)[nH]2)cc1 [Example 6-5, 6-[(1E)-1-(4-tert-Butylphenyl)-3-(morpholin-4-yl)prop-1-en-1-yl]-3-chloropyridin-2(1H)-one], which EC50 is on record?
A: The EC50 was 3 to 10 µM.

Q: With CC(C)(C)c1ccc(/C(=C\CN2CCCCCC2=O)c2ccc(Cl)c(=O)[nH]2)cc1 [Example 6-6, 1-[(2E)-3-(4-tert-Butylphenyl)-3-(5-chloro-6-oxo-1,6-dihydropyridin-2-yl)prop-2-en-1-yl]azepan-2-one] as the molecule, how does the EC50 read?
A: The EC50 was 0.5 to 3 µM.

Q: CC(C)(C)c1ccc(/C(=C\CN2CCCS2(=O)=O)c2ccc(Cl)c(=O)[nH]2)cc1 [Example 6-7, 6-[(1E)-1-(4-tert-Butylphenyl)-3-(1,1-dioxido-1,2-thiazolidin-2-yl)prop-1-en-1-yl]-3-chloropyridin-2(1H)-one] was tested. Which EC50 did it give?
A: The EC50 was 0.5 to 3 µM.

Q: Which EC50 does the source give for CC(C)(C)c1ccc(/C(=C\CN2C(=O)CCC2=O)c2ccc(Cl)c(=O)[nH]2)cc1 [Example 6-9, 1-[(2E)-3-(4-tert-Butylphenyl)-3-(5-chloro-6-oxo-1,6-dihydropyridin-2-yl)prop-2-en-1-yl]pyrrolidine-2,5-dione] here?
A: Its EC50 is 0.5 to 3 µM.

Q: With CC(C)(C)c1ccc(/C(=C\COc2ccccc2)c2ccc(Cl)c(=O)[nH]2)cc1 [Example 6-10, 6-[(1E)-1-(4-tert-Butylphenyl)-3-phenoxyprop-1-en-1-yl]-3-chloropyridin-2(1H)-one] as the molecule, how does the EC50 read?
A: The EC50 was 0.5 to 3 µM.

Q: How did the EC50 turn out when CC(C)(C)c1ccc(/C(=C\Cn2ccccc2=O)c2ccc(Cl)c(=O)[nH]2)cc1 [Example 6-11, 6-[(1E)-1-(4-tert-Butylphenyl)-3-(2-oxopyridin-1(2H)-yl)prop-1-en-1-yl]-3-chloropyridin-2(1H)-one] was run?
A: Its EC50 is 0.5 to 3 µM.

Q: For CC(C)(C)c1ccc(/C(=C\CCN2CCCS2(=O)=O)c2ccc(Cl)c(=O)[nH]2)cc1 [Example 6-12, 6-[(1E)-1-(4-tert-Butylphenyl)-4-(1,1-dioxide-1,2-thiazolidin-2-yl)but-1-en-1-yl]-3-chloropyridin-2(1H)-one], which EC50 is on record?
A: Its EC50 is 0.5 to 3 µM.

Q: How did the EC50 turn out when CC(C)(C)c1ccc(/C(=C\CCN2C(=O)CCC2=O)c2ccc(Cl)c(=O)[nH]2)cc1 [Example 6-13, 1-[(3E)-4-(4-tert-Butylphenyl)-4-(5-chloro-6-oxo-1,6-dihydropyridin-2-yl)but-3-en-1-yl]pyrrolidine-2,5-dione] was run?
A: The EC50 was 0.5 to 3 µM.

Q: How did the EC50 turn out when CC(C)(C)c1ccc(/C(=C\N2CCCC2=O)c2ccc(Cl)c(=O)[nH]2)cc1 [Example 6-14, 6-[(E)-1-(4-tert-Butylphenyl)-2-(2-oxopyrrolidin-1-yl)ethenyl]-3-chloropyridin-2(1H)-one] was run?
A: The EC50 was 0.5 to 3 µM.

Q: CC(C)(C)c1ccc(/C(=C\C(=O)N2CCCC2)c2ccc(Cl)c(=O)[nH]2)cc1 [Example 6-15, 6-[(1E)-1-(4-tert-Butylphenyl)-3-oxo-3-(pyrrolidin-1-yl)prop-1-en-1-yl]-3-chloropyridin-2(1H)-one] was tested. Which EC50 did it give?
A: Its EC50 is 3 to 10 µM.

Q: CN1CCN(C/C=C(\c2ccc(C(C)(C)C)cc2)c2ccc(Cl)c(=O)[nH]2)C1=O [Example 6-16, 6-[(1E)-1-(4-tert-Butylphenyl)-3-(3-methyl-2-oxoimidazolidin-1-yl)prop-1-en-1-yl]-3-chloropyridin-2(1H)-one] was tested. Which EC50 did it give?
A: Its EC50 is 0.01 to 0.5 µM.

Q: For CC(C)(C)c1ccc(/C(=C\CN2CCCCCCC2=O)c2ccc(Cl)c(=O)[nH]2)cc1 [Example 6-18, 1-[(2E)-3-(4-tert-Butylphenyl)-3-(5-chloro-6-oxo-1,6-dihydropyridin-2-yl)prop-2-en-1-yl]azocan-2-one], which EC50 is on record?
A: The EC50 was 3 to 10 µM.

Q: For CN1CCC(C/C=C(\c2ccc(C(C)(C)C)cc2)c2ccc(Cl)c(=O)[nH]2)C1=O (centres unmarked) [Example 6-19, 6-[(1E)-1-(4-tert-Butylphenyl)-3-(1-methyl-2-oxopyrrolidin-3-yl)prop-1-en-1-yl]-3-chloropyridin-2(1H)-one], which EC50 is on record?
A: Its EC50 is 0.5 to 3 µM.

Q: With O=C1CCCN1C/C=C(\c1ccc(S(=O)(=O)C2CC2)cc1)c1ccc(Cl)c(=O)[nH]1 [Example 6-20, 3-Chloro-6-[(1E)-1-[4-(cyclopropylsulfonyl)phenyl]-3-(2-oxopyrrolidin-1-yl)prop-1-en-1-yl]pyridin-2(1H)-one] as the molecule, how does the EC50 read?
A: Its EC50 is 0.5 to 3 µM.

Q: How did the EC50 turn out when O=C1OCCN1C/C=C(\c1ccc(S(=O)(=O)C2CC2)cc1)c1ccc(Cl)c(=O)[nH]1 [Example 6-21, 3-Chloro-6-[(1E)-1-[4-(cyclopropylsulfonyl)phenyl]-3-(2-oxo-1,3-oxazolidin-3-yl)prop-1-en-1-yl]pyridin-2(1H)-one] was run?
A: Its EC50 is 0.5 to 3 µM.

Q: Which EC50 does the source give for CC(C)c1ccc(/C(=C\CN2CCOC2=O)c2ccc(Cl)c(=O)[nH]2)cc1 [Example 6-22, 3-Chloro-6-{(1E)-3-(2-oxo-1,3-oxazolidin-3-yl)-1-[4-(propan-2-yl)phenyl]prop-1-en-1-yl}pyridin-2(1H)-one] here?
A: The EC50 was 0.5 to 3 µM.

Q: How did the EC50 turn out when CC(C)(C)c1ccc(/C(=C\Cc2nc(=O)o[nH]2)c2ccc(Cl)c(=O)[nH]2)cc1 [Example 6-23, 6-[(1E)-1-(4-tert-Butylphenyl)-3-(5-oxo-2,5-dihydro-1,2,4-oxadiazol-3-yl)prop-1-en-1-yl]-3-chloropyridin-2(1H)-one] was run?
A: The EC50 was 3 to 10 µM.

Q: Which EC50 does the source give for CC(C)(C)c1ccc(/C(=C\CCO)c2ccc(Cl)c(=O)[nH]2)cc1 [Example 6-24, 6-[(1E)-1-(4-tert-Butylphenyl)-4-hydroxybut-1-en-1-yl]-3-chloropyridin-2(1H)-one] here?
A: The EC50 was 3 to 10 µM.

Q: Which EC50 does the source give for CC(C)(C)c1ccc(/C(=C\CCN2CCCC2=O)c2ccc(Cl)c(=O)[nH]2)cc1 [Example 6-27, 6-[(1E)-1-(4-tert-Butylphenyl)-4-(2-oxopyrrolidin-1-yl)but-1-en-1-yl]-3-chloropyridin-2(1H)-one] here?
A: The EC50 was 0.5 to 3 µM.

Q: Which EC50 does the source give for CC(C)(C)c1ccc(/C(=C\Cc2ccccc2)c2ccc(Cl)c(=O)[nH]2)cc1 [Example 6-28, 6-[(1E)-1-(4-tert-Butylphenyl)-3-phenylprop-1-en-1-yl]-3-chloropyridin-2(1H)-one] here?
A: The EC50 was 0.5 to 3 µM.
